What was measured:
Test in all cases: MIC, agar diffusion method (European Pharmacopoeia 3rd Ed.)
Type in all cases: cell-based
[1] = system: S. aureus ATCC2977
Description: (§1) The antibacterial activity of some of these compounds relative to fusidic acid appears from Table 2 showing MIC values for compounds of the invention. The method used is recommended by the European Pharmacopoeia 3rd Ed. (1997) for testing the potency of antibiotics. It is an agar diffusion method where the same volume of the tested solution is added to cavities in agar. The inhibition zones are a function of the concentration of the fusidic acid analogue used. All assays are run with fusidic acid (1) as the reference substance. The results in Table 2 differ from those of Table 1 due to the different experimental methods used.

[2] = system: Strep. faecalis ATCC10541
Description: as §1

[3] = system: Strep. sp. Gr.B Leo id. EF6
Description: as §1

[4] = system: S. aureus Leoid CJ234(R); conditions: MRSA and Rifampicin resistant
Description: as §1

[5] = system: S. aureus Leo id. CJ232; conditions: S. aureus Leo id. CJ232, MRSA
Description: as §1

[6] = system: Strep. epidermis A. ATCC12228
Description: as §1

[7] = system: Strep. faecium Leo id. E119(P); conditions: Penicillin resistant
Description: as §1

[8] = system: S. aureus ATCC6538P
Description: as §1

Structure (SMILES) | MIC values (concentrations in μg/ml required for 90% inhibition) [1] [µg/mL] | MIC values (concentrations in μg/ml required for 90% inhibition) [2] | MIC values (concentrations in μg/ml required for 90% inhibition) [3] [µg/mL] | MIC values (concentrations in μg/ml required for 90% inhibition) [4] [µg/mL] | MIC values (concentrations in μg/ml required for 90% inhibition) [5] [µg/mL] | MIC values (concentrations in μg/ml required for 90% inhibition) [6] [µg/mL] | MIC values (concentrations in μg/ml required for 90% inhibition) [7] [µg/mL] | MIC values (concentrations in μg/ml required for 90% inhibition) [8] [µg/mL]
CC(=O)O[C@H]1C[C@@]2(C)[C@@H](C[C@@H](O)[C@H]3[C@@]4(C)CC[C@@H](O)[C@@H](C)[C@@H]4CC[C@@]32C)[C@H]1[C@H](CCCC(C)C)C(=O)O [Compound 102, 17(S),20(S),24,25-Tetrahydrofusidic Acid] | 0.02 | MIC>64 μg/ml | 3.4 | 0.009 | 0.12 | 0.015 | 3.9 | 0.016
CCC(=O)OC1CC2(C)C(CC(O)C3C4(C)CCC(O)C(C)C4CCC32C)C1C(CCC=C(C)C)C(=O)O [Compound 105, 16-Deacetoxy-16β-propionyloxy-17(S),20(S)-dihydrofusidic Acid] | 0.19 | >64 µg/mL | >64 | 0.063 | 0.24 | 0.08 | 3.9 | 0.22
CC(C)=CCCC(C(=O)O)C1C(OC(=O)C2CCCCC2)CC2(C)C1CC(O)C1C3(C)CCC(O)C(C)C3CCC12C [Compound 113, 16-Deacetoxy-16β-cyclohexylcarbonyloxy-17(S),20(S)-dihydrofusidic acid] | 16 | >64 µg/mL | 4 | 16 | 16 | >64 | >64 | 16
CCO[C@H]1C[C@@]2(C)[C@@H](C[C@@H](O)[C@H]3[C@@]4(C)CC[C@@H](O)[C@@H](C)[C@@H]4CC[C@@]32C)[C@H]1[C@H](CCC=C(C)C)C(=O)O [Compound 123, 16-Deacetoxy-16β-ethoxy-17(S),20(S)-dihydrofusidic Acid] | 0.02 | 16 µg/mL | 16 | 0.007 | 0.005 | 0.5 | 16 | 0.02
